Assay results from publication PMC11397063, “Subcutaneous Semaglutide during Breastfeeding: Infant Safety Regarding Drug Transfer into Human Milk” (Nutrients, 2024).

Assays:
[1] = test system: breastfed infants; details: in vivo
[2] = estimation of relative infant dose (RID, RIDF, RIDFP) from milk; format: in vivo, human; details: milk concentration assumed = LLOQ 5.7 ng/mL
Source text: The maternal weight-adjusted infant dose, the relative infant dose (RID%), is often used to assess infant exposure to drugs through breastfeeding. This parameter is the percentage of an infant dose of drug via a full diet of human milk relative to the maternal dose (mg/kg) over the same period. An RID of […] is often considered a safety threshold in risk assessments. (1) RID (%)=100 × infant daily oral dose per kg from milk/maternal daily dose per kg
The fraction’s numerator is computed as the product of the measured drug concentration present in milk times estimated milk intake of 150 mL/kg/day.
The RID calculation was adjusted to include parameters for bioavailability and extended dosing intervals, which will improve the interpretation of RID in the setting of subcutaneous semaglutide injection.
First, we will contextualize bioavailability in the RID by including these parameters in the RID calculation (RIDF). […] The oral bioavailability of semaglutide is low but unknown per a medical information request at Novo Nordisk (B. Shah, personal communication, 20 June 2024). As such, oral bioavailability will be overestimated using the available parameter for semaglutide formulated with the permeability enhancer, SNAC (F < 0.01), though SNAC will not be present in this scenario [32]. […]

[3] = cited from earlier work
Source text: First, we will contextualize bioavailability in the RID by including these parameters in the RID calculation (RIDF). […] The oral bioavailability of semaglutide is low but unknown per a medical information request at Novo Nordisk (B. Shah, personal communication, 20 June 2024). As such, oral bioavailability will be overestimated using the available parameter for semaglutide formulated with the permeability enhancer, SNAC (F < 0.01), though SNAC will not be present in this scenario [32]. This overestimate will assist in co ... || However, rather than simply converting the weekly dose to an equivalent daily dose, the estimation of RID can be further extrapolated to estimate steady-state conditions over the full week by considering the plasma concentration-time profile of the […]. […] Overgaard et al. published population pharmacokinetic parameters of semaglutide. According to this publication, the disposition of semaglutide after subcutaneous administration follows a 2-compartment model with first-order absorption from the injection ...

infant growth, all infants [1]: unremarkable
RIDF (%), maximum possible ([2]; Equation (2), mean maternal weight 93 kg, mean 0.56 mg/week SC, F(oral) 0.01, F(S.C.) 89%, weekly dose/7): <1.12%
maximum dose to the infant possible without detecting semaglutide in milk ([2]; infant milk intake 150 mL/kg/day): 855 ng/kg/day
Compound: CC[C@H](C)[C@H](NC(=O)[C@H](Cc1ccccc1)NC(=O)[C@H](CCC(=O)O)NC(=O)[C@H](CCCCNC(=O)COCCOCCNC(=O)COCCOCCNC(=O)CC[C@H](NC(=O)CCCCCCCCCCCCCCCCC(=O)O)C(=O)O)NC(=O)[C@H](C)NC(=O)[C@H](C)NC(=O)[C@H](CCC(N)=O)NC(=O)CNC(=O)[C@H](CCC(=O)O)NC(=O)[C@H](CC(C)C)NC(=O)[C@H](Cc1ccc(O)cc1)NC(=O)[C@H](CO)NC(=O)[C@H](CO)NC(=O)[C@@H](NC(=O)[C@H](CC(=O)O)NC(=O)[C@H](CO)NC(=O)[C@@H](NC(=O)[C@H](Cc1ccccc1)NC(=O)[C@@H](NC(=O)CNC(=O)[C@H](CCC(=O)O)NC(=O)C(C)(C)NC(=O)[C@@H](N)Cc1cnc[nH]1)[C@@H](C)O)[C@@H](C)O)C(C)C)C(=O)N[C@@H](C)C(=O)N[C@@H](Cc1c[nH]c2ccccc12)C(=O)N[C@@H](CC(C)C)C(=O)N[C@H](C(=O)N[C@@H](CCCNC(=N)N)C(=O)NCC(=O)N[C@@H](CCCNC(=N)N)C(=O)NCC(=O)O)C(C)C [semaglutide]
infant milestones, all infants [1]: meeting or surpassing expected milestones
oral bioavailability (F) ([3]; semaglutide formulated with the permeability enhancer SNAC, used as overestimate): < 0.01
subcutaneous bioavailability ([3]; subcutaneous): 89%
